From patent publication US8334371B2, “Lactic acid bacteria-derived double-stranded RNA” (Kikkoman Corporation, priority 2007, dated 2012)

B1: DSR2: synthetic double-stranded RNA, 119 mer, SEQ ID NO. 6, made by in vitro transcription and annealing (nucleic acid, listed as Tetragenococcus halophilus)
chain: AAAAAATTACCTTTTTCTATTCGTGAGAAAATTTCTCAAGCCGACAAGTATCATAAAAAATTTGCTTTTGAACACTTTTTGAAGGTGTTTCTCTATGGCATCGATCATGAGTGTGAAAG
modifications: RNA, all phosphodiester, T or U not given here; further chemistry not fully specified
notes: 6, made by in vitro transcription and annealing

System: bone marrow-derived dendritic cells
Assay: Promotion of interferon β production from bone marrow-derived dendritic cells (PBL interferon β assay kit)
Type: cell-based, mouse
Method: In addition, measurement was also carried out on interferon β, which has been reported to be involved in the production of interleukin 12. Activity promoting production of interferon β from bone marrow-derived dendritic cells (after culturing for 6 hours using an interferon β assay kit (PBL)) was as shown in FIG. 8.
At this time, interferon […], which has been reported to be involved in interleukin 12 production, was also measured.
(§1) Bone marrow-derived dendritic cells were prepared in the same manner as Example 2. Synthetic RNA was added to the bone marrow-derived dendritic cells followed by co-culturing for 6 hours in a 5% CO2 incubator at 37° C. Interferon β production promoting activity was measured using an interferon β assay kit manufactured by PBL.
as §1, with “for 24” for “for 6”, “using the” for “using an”

Row | Molecule | interferon β production promoting activity (culturing for 6 hours, concentration response) | interferon β production promoting activity (dendritic cells from TLR3-knockout mice vs wild type, 6 hours) | interferon β production from bone marrow-derived dendritic cells (co-culturing for 24 hours)
1 | DSR1: synthetic double-stranded RNA, 46 mer, SEQ ID NO. 5, sequence cloned from Th221 double-stranded RNA fraction (AAATTTTCAAAAACCTGTTTTGCTTCTTCTAAAAATCCAATTGAAA; listed as DNA, chemistry not given here; listed as Tetragenococcus halophilus) | increased dependent on the concentration | decreased | 
2 | B1 |  |  | indicated to be produced
